Data from patent publication US6828111B2, “Three-dimensional in vitro model of human preneoplastic breast disease” (Wayne State University, priority 2000, dated 2004).
“Also recorded” adds a separate entry of the source.

Columns and labels:
Assay type in all cases: cell-based, human
MCF10A-HUVEC co-cultures = test: Heterotypic MCF10A-HUVEC 3D Matrigel co-culture, morphology
Excerpt: For heterotypic 3D co-cultures, 5×10^4 MCF10A, MCF10AT1, or EIII8 cells were mixed with an equal number of HUVECs, human breast fibroblasts (reduction mammoplasty, benign or tumor-derived), IMR-90, HT1080 or NIH 3T3 cells. For heterotypic tricultures, MCF10A or EIII8 cells were mixed with equivalent numbers of human breast fibroblasts (reduction mammoplasty, benign or tumor-derived) and HUVECs and seeded onto chamber slides coated with Matrigel as described for homotypic cultures. Typically, heterotypic co-cultures were performed in SFM supplemented with EGF and bFGF since this medium results in optimal viability, growth and 3D organization of both HUVEC and MCF10A cells. Typically, heterotypic cultures were performed in SFM supplemented with EGF and bFGF because it allows optimal viability, growth and 3D organization of HUVEC, fibroblasts and MCF10A cells. Heterotypic co-cultures were routinely maintained up to 3 weeks, and morphological development was analyzed by phase contrast microscopy. F

EIII8-HUVEC co-cultures [1] = test: Heterotypic EIII8-HUVEC 3D Matrigel co-culture, morphology; conditions: for inhibition of endothelial sprouting and associated ductal-alveolar morphogenesis: 1 nM E2 plus 100-fold molar excess of antiestrogen, day 5
Excerpt: For heterotypic 3D co-cultures, 5×10^4 MCF10A, MCF10AT1, or EIII8 cells were mixed with an equal number of HUVECs, human breast fibroblasts (reduction mammoplasty, benign or tumor-derived), IMR-90, HT1080 or NIH 3T3 cells. For heterotypic tricultures, MCF10A or EIII8 cells were mixed with equivalent numbers of human breast fibroblasts (reduction mammoplasty, benign or tumor-derived) and HUVECs and seeded onto chamber slides coated with Matrigel as described for homotypic cultures. Typically, heterotypic co-cultures were performed in SFM supplemented with EGF and bFGF since this medium results in optimal viability, growth and 3D organization of both HUVEC and MCF10A cells. Typically, heterotypic cultures were performed in SFM supplemented with EGF and bFGF because it allows optimal viability, growth and 3D organization of HUVEC, fibroblasts and MCF10A cells. Heterotypic co-cultures were routinely maintained up to 3 weeks, and morphological development was analyzed by phase contrast microscopy. F To assess growth effects of E2 on homotypic (EIII8) or heterotypic (EIII8-HUVEC) 3D cultures, 5×10^4 EIII8 cells were seeded alone or mixed with an equivalent number of HUVEC in the appropriate medium in 8-well chamber slides coated with Matrigel as described above. Slides were incubated overnight to allow attachment of the cells, and treated with vehicle (0.01% ethanol, v/v), pure antiestrogen ICI 182,780 alone (100 or 1000 nM (Zeneca Pharmaceuticals, […]2 (0.1, 1 or 10 nM; Sigma Chemical Co., St. Louis, Mo.), or a combination of 1 nM E2 and 100- or 1000-fold molar excess of ICI 182,780. Cultures were incubated at 37° C. for 5 days, after which cell viability was measured with the MTS (3-(4,5-dimethylthiazol-2-yl)-5-(3-carboxymethoxyphenyl)-2-(4-sulfophenyl)-2H-tetrazolium) kit according to the manufacturer's directions (Promega Corp, Madison, Wis.).

EIII8 cells = test: Homotypic EIII8 3D Matrigel culture, phase contrast morphology
[2] = tested on: wild type ER protein (67 kDa); test: Western blot of ER in matrix fractions of EIII8-HUVEC 3D cultures; conditions: 100-fold molar excess over E2, day 5; 42 kDa ER-reactive protein appears
Experimental: (§1) 5×10^4 EIII8 or MCF10A cells were seeded alone or mixed with an equivalent number of HUVEC on Matrigel in SFM media as described above. Cells were incubated for 6 h to attach and the medium was replaced with fresh SFM. After appropriate incubation, the culture media from homotypic and heterotypic co-cultures were collected, centrifuged to remove debris and stored at −20° C. Following removal of culture medium, matrix containing the 3D structures was either solubilized for SDS-PAGE and Western blot analysis or fixed in buffered formalin for evaluation of morphology and distribution of functional markers.
Analysis of expression of VEGF, IL-8, Estrogen receptor (ER) and Flk-1/KDR proteins was carried out by Western analysis with specific antibodies. Aliquots of unconcentrated conditioned media or lysates of 3D cultures containing 20 or 40 μg total protein, respectively, were collected after indicated culture intervals, separated by SDS-PAGE on 12.5% (VEGF), 17% (IL-8) or 7% (ER and Flk-1/KDR) polyacrylamide gels (Laemmli, UK, Nature 227:680-685, 1970), and subjected to Western blot analysis. […] Immunoreactive bands were visualized by chemiluminescence, and band intensities were quantitated with a Model 300A densitometer (Molecular Dynamics, Sunnyvale, Calif.).

EIII8-HUVEC co-cultures [3] = test: 3D growth of EIII8-HUVEC cultures by MTS assay and trypan blue counts
Experimental: To assess growth effects of E2 on homotypic (EIII8) or heterotypic (EIII8-HUVEC) 3D cultures, 5×10^4 EIII8 cells were seeded alone or mixed with an equivalent number of HUVEC in the appropriate medium in 8-well chamber slides coated with Matrigel as described above. Slides were incubated overnight to allow attachment of the cells, and treated with vehicle (0.01% ethanol, v/v), pure antiestrogen ICI 182,780 alone (100 or 1000 nM (Zeneca Pharmaceuticals, […]2 (0.1, 1 or 10 nM; Sigma Chemical Co., St. Louis, Mo.), or a combination of 1 nM E2 and 100- or 1000-fold molar excess of ICI 182,780. Cultures were incubated at 37° C. for 5 days, after which cell viability was measured with the MTS (3-(4,5-dimethylthiazol-2-yl)-5-(3-carboxymethoxyphenyl)-2-(4-sulfophenyl)-2H-tetrazolium) kit according to the manufacturer's directions (Promega Corp, Madison, Wis.). Measurements were made from triplicate sets of wells for each treatment. Background absorbance was corrected by preparing triplicate sets of wells containing only Matrigel (“no cell”) and the same volume of medium and MTS reagent as in experimental wells. Average absorbances from “no cell” wells were subtracted from sample absorbance values containing cells to yield corrected absorbance, and the results represent the average±S.E. of triplicate samples. Each experiment was repeated at least three times. Since the MTS assays performed here differs from routine MTS assays in that they are done on 3D cultures growing in Matrigel rather than monolayers, results of MTS assays were validated by performing direct cell counts of viable cells in the 3D cultures. For this, the medium was removed, wells rinsed with PBS, and Matrigel was digested with dispase for 2 h at 37° C. The digested material was centrifuged at 4000×g for 10 min, and the pellet treated with trypsin to recover single cells from the 3D tubular structures. The number of viable cells was determined by trypan blue exclusion in a hemocytometer. Results were expressed as mean±S.E. from three independent experiments.

[4] = tested on: EIII8+38T+HUVEC tricultures; test: 3D growth of EIII8+38T+HUVEC tricultures, viable cell count
Experimental: (§2) 3-D cultures were set up by seeding 5×10^4 EIII8, HUVEC, […] or […] (reduction mammoplasty fibroblasts), […] or […] (tumor-derived breast fibroblasts) alone or mixing 5×10^4 EIII8 cells with an equivalent number of […] (or […]) or […] (or […]) in the absence or presence of an equivalent number of HUVEC cells onto chamber slides coated with Matrigel as described above. Cultures were incubated at 37° C. for 6 days, after which the cell viability was measured in the 3-D cultures. The medium was removed, wells were rinsed with phosphate buffered saline, and the Matrigel was digested with dispase for 2 h at 37° C. The digested material was centrifuged at 4000×g for 10 min, and the pellet was treated with trypsin to recover single cells from the 3-D structures. The number of viable cells was determined by trypan blue exclusion in a hemocytometer and results expressed as average±SE from three independent experiments. […]

IL-8 = test: Western blot of IL-8 in culture media of EIII8-HUVEC 3D cultures
Experimental: (§3) 5×10^4 EIII8 or MCF10A cells were seeded alone or mixed with an equivalent number of HUVEC on Matrigel in SFM media as described above. Cells were incubated for 6 h to attach and the medium was replaced with fresh SFM. After appropriate incubation, the culture media from homotypic and heterotypic co-cultures were collected, centrifuged to remove debris and stored at −20° C. Following removal of culture medium, matrix containing the 3D structures was either solubilized for SDS-PAGE and Western blot analysis or fixed in buffered formalin for evaluation of morphology and distribution of functional markers. Analysis of expression of VEGF, IL-8, Estrogen receptor (ER) and Flk-1/KDR proteins was carried out by Western analysis with specific antibodies. […] The following antibodies to human proteins were used: (1) rabbit polyclonal anti-VEGF antisera (recognizes C-terminal epitope of VEGF165, VEGF189 and VEGF206; Oncogene Science), mouse anti-ER mAb (Clone 1D5; reacts with the N-terminal domain or A/B region of the ER; Dako Corp., Carpenteria, Calif.), mouse anti-Flk-1/KDR mAb (Chemicon International, Inc.) and goat polyclonal anti-IL-8 antibody (R&D Systems). Immunoreactive bands were visualized by chemiluminescence, and band intensities were quantitated with a Model 300A densitometer (Molecular Dynamics, Sunnyvale, Calif.).

VEGF165 = test: Western blot of VEGF165 in culture media of EIII8-HUVEC 3D cultures
Experimental: as §3

Flk-1/KDR = test: Western blot of Flk-1/KDR in matrix fractions of EIII8-HUVEC 3D cultures; conditions: for regulation of Flk-1/KDR protein levels: 10-day old co-cultures
Experimental: as §1
Analysis of expression of VEGF, IL-8, Estrogen receptor (ER) and Flk-1/KDR proteins was carried out by Western analysis with specific antibodies. Aliquots of unconcentrated conditioned media or lysates of 3D cultures containing 20 or 40 μg total protein, respectively, were collected after indicated culture intervals, separated by SDS-PAGE on 12.5% (VEGF), 17% (IL-8) or 7% (ER and Flk-1/KDR) polyacrylamide gels (Laemmli, UK, Nature 227:680-685, 1970), and subjected to Western blot analysis. The following antibodies to human proteins were used: (1) rabbit polyclonal anti-VEGF antisera (recognizes C-terminal epitope of VEGF165, VEGF189 and VEGF206; Oncogene Science), mouse anti-ER mAb (Clone 1D5; reacts with the N-terminal domain or A/B region of the ER; Dako Corp., Carpenteria, Calif.), mouse anti-Flk-1/KDR mAb (Chemicon International, Inc.) and goat polyclonal anti-IL-8 antibody (R&D Systems). Immunoreactive bands were visualized by chemiluminescence, and band intensities were quantitated with a Model 300A densitometer (Molecular Dynamics, Sunnyvale, Calif.).

[5] = tested on: EIII8+31R+HUVEC tricultures; test: 3D growth of EIII8+31R+HUVEC tricultures, viable cell count; conditions: 1 or 10 nM E2, 6 days, reduction mammoplasty fibroblasts
Experimental: as §2

With `C[C@]12CC[C@@H]3c4ccc(O)cc4C[C@@H](CCCCCCCCC[S+]([O-])CCCC(F)(F)C(F)(F)F)[C@H]3[C@@H]1CC[C@@H]2O` (some centres unmarked) [ICI 182,780] the “formation of endothelial cell-enriched spots / endothelial cell growth” value (MCF10A-HUVEC co-cultures; 1 nM E2 plus 100-fold molar excess ICI 182,780, day 5, MCF10A epithelium maintained) was “abolished; also recorded: specific inhibition”, the “inhibition of endothelial sprouting and associated ductal-alveolar morphogenesis” value (EIII8-HUVEC co-cultures [1]) was “dramatic inhibition; also recorded: specific inhibition” and the “blocking of E2-induced effects on EIII8 3D structures (epithelial multilayering)” value (EIII8 cells; 1 nM E2 plus 100-fold molar excess of antiestrogen, 5 days) was “blocked; also recorded: significantly inhibits”. For the same molecule, the “amount of wild type ER” value [2] was “significantly reduced”, the “effect on growth promoting effects of E2” value (EIII8-HUVEC co-cultures [3]; 100-fold molar excess over 1 nM E2, day 5, p<0.001) was “abolished” and the “inhibition of growth in vehicle- and E2-treated cultures” value ([4]; 100 nM ICI 182,780 alone or with 1 nM E2, 6 days, p<0.001) was “significantly inhibited; also recorded: significantly decreased”. The “effect on IL-8 levels” value (IL-8; 100-fold molar excess over 1 nM E2, days 5 and 10) was “no effect”, the “E2-stimulated VEGF165 levels” value (VEGF165; ICI 182,780 at 100-fold molar excess over 1 nM E2) was “returned to control levels” and the “regulation of Flk-1/KDR protein levels” value (Flk-1/KDR) was “no longer regulated”. The “reduction in Flk-1/KDR protein levels” value (Flk-1/KDR; 100-fold molar excess, 5-day old cultures) was “about 80%”.

With `C[C@]12CC[C@@H]3c4ccc(O)cc4CC[C@H]3[C@@H]1CC[C@@H]2O` [E2, 17 β-estradiol] the “influence on growth and proliferation of endothelial or epithelial cells” value (MCF10A-HUVEC co-cultures; addition of E2 (1 nM), day 5) was “no significant influence”, the “growth of endothelial cell-enriched spots and ductal-alveolar outgrowths” value (EIII8-HUVEC co-cultures [1]; 1 nM E2, 5-day co-cultures, vs control) was “enhanced” and the “effect on EIII8 3D tubular structures (tube thickening, central spaces, connecting bridges)” value (EIII8 cells; 1 or 10 nM E2, 5 days, vs control cultures) was “marked thickening of tubes; also recorded: induce formation of several new central spaces and connecting bridges”. For the same molecule, the “increase in growth over control cultures” value (EIII8-HUVEC co-cultures [3]; 10 nM E2, day 5, p<0.01) was 2 fold, the “concentrations giving dose dependent induction of growth” value (EIII8-HUVEC co-cultures [3]; day 5, MTS and trypan blue assays) was > 1 nM and the “increase in triculture growth” value ([4]; apparent only with 10 nM E2, 6 days, p<0.03) was “marginal increase”. For the same molecule, the “regulation of IL-8 expression” value (IL-8; 1 nM E2, days 5 and 10) was “did not appear to regulate IL-8 expression”, the “stimulation of triculture growth” value [5] was “failed to stimulate growth” and the “increase in VEGF165 levels over control cultures” value (VEGF165; 1 nM E2, day 5, densitometry) was 4 fold. The “increase in VEGF165 levels over control cultures” value (VEGF165; 1 nM E2, day 10, densitometry) was 8 fold, the “levels of Flk-1/KDR protein, E2-treated vs control” value (Flk-1/KDR; 1 nM E2, 5 day-old cultures) was “equally up-regulated” and the “regulation of Flk-1/KDR protein levels” value (Flk-1/KDR) was “no longer regulated”.

With `CC/C(=C(\c1ccc(O)cc1)c1ccc(OCCN(C)C)cc1)c1ccccc1` [4(OH) tamoxifen] the “inhibition of endothelial sprouting and associated ductal-alveolar morphogenesis” value (EIII8-HUVEC co-cultures [1]) was “dramatic inhibition”.
